Blank lines part the entries; values can stand above or below the compound they belong to.
Assays:
in vitro [1] = settings: human, liver microsomes
in vivo [2] = settings: NSG, mouse, tumor, po, 125 mg/kg
in vivo [3] = settings: NSG, mouse, plasma, po, 125 mg/kg
[4] = Drug concentration in tumor of NSG mouse xenografted with human SKOV3 cells at 3 mg/kg, po QD measured at 24 hrs post dose; assay type: ADME, organism-based, Neoplasm, SK-OV-3; settings: read-out: Drug uptake
[5] = Drug concentration in plasma of NSG mouse xenografted with human SKOV3 cells at 3 mg/kg, po QD measured at 24 hrs post dose; assay type: ADME, organism-based, SK-OV-3
[6] = Apparent permeability across apical side to basolateral side in wild type MDCK cells; assay type: ADME, cell-based, Canis lupus familiaris; settings: dog
[7] = Apparent permeability across basolateral side to apical side in MDCK cells; assay type: ADME, cell-based, Canis lupus familiaris; settings: dog
[8] = Apparent permeability across apical side to basolateral side in MDCK-MDR1 cells; assay type: ADME, cell-based, Canis lupus familiaris; settings: dog
[9] = Apparent permeability across basolateral side to apical side in MDCK-MDR1 cells; assay type: ADME, cell-based, Canis lupus familiaris; settings: dog
in vitro [10] = settings: rat, liver microsomes
in vivo [11] = settings: CD1, mouse, iv, 0.3 mg/kg
in vivo [12] = settings: CD1, mouse, iv, 0.3 mg/kg; remark: listed apart in the source
in vivo [13] = settings: CD1, mouse, iv, 0.3 mg/kg; remark: listed apart in the source
in vivo [14] = settings: CD1, mouse, iv, 0.3 mg/kg; remark: listed apart in the source
in vivo [15] = settings: CD1, mouse, po, 10 mg/kg
in vivo [16] = settings: CD1, mouse, po, 10 mg/kg; remark: listed apart in the source
in vivo [17] = settings: NSG, mouse, tumor, po, 125 mg/kg; remark: listed apart in the source
in vivo [18] = settings: NSG, mouse, plasma, po, 125 mg/kg; remark: listed apart in the source
[19] = Drug concentration in tumor of NSG mouse xenografted with human SKOV3 cells at 125 mg/kg, po BID measured after 12 hrs by LC-MS analysis; assay type: ADME, organism-based, Neoplasm, SK-OV-3; settings: read-out: Drug uptake
[20] = Drug concentration in plasma of NSG mouse xenografted with human SKOV3 cells at 125 mg/kg, po BID measured after 12 hrs by LC-MS analysis; assay type: ADME, organism-based, SK-OV-3
[21] = AUC in rat plasma at 250 mg/kg, po QD administered for 7 days; assay type: ADME, organism-based; design: dose 250 mg/kg, time 7 day
in vivo [22] = settings: CD-1, mouse, iv, 0.3 mg/kg
in vivo [23] = settings: CD-1, mouse, iv, 0.3 mg/kg; remark: listed apart in the source
in vivo [24] = settings: CD-1, mouse, iv, 0.3 mg/kg; remark: listed apart in the source
in vivo [25] = settings: CD-1, mouse, iv, 0.3 mg/kg; remark: listed apart in the source
in vivo [26] = settings: CD-1, mouse, po, 10 mg/kg
in vivo [27] = settings: CD-1, mouse, po, 10 mg/kg; remark: listed apart in the source

- CLint scaled at 0.75 h, 1 µM (in vitro [1]): 490 mL/min/kg
Structure (SMILES): CCC(NC(=O)c1ccc(Cl)cc1)[C@@H]1[C@@H]2C[C@@H](Oc3ccnc4ccc(F)cc34)C[C@@H]21 (some centres undefined)

- CLint scaled at 0.75 h, 1 µM (in vitro [1]): 2 mL/min/kg
Structure (SMILES): CCC(NC(=O)c1ccc(Cl)cc1)[C@H]1[C@@H]2C[C@@H](n3cnc(C4CC4)n3)C[C@@H]21 (some centres undefined)

- CLint scaled at 0.75 h, 1 µM (in vitro [1]): 0.7 mL/min/kg
Structure (SMILES): CCC(NC(=O)c1ccc(Cl)cc1)[C@H]1[C@@H]2C[C@@H](n3cnc4cccc(F)c4c3=O)C[C@@H]21 (some centres undefined)

- concentration at 120 h (in vivo [2]): 12000 nM
- concentration at 120 h (in vivo [3]): 10100 nM
Structure (SMILES): CC[C@@H](NC(=O)c1ccc(Cl)cc1)[C@H]1[C@@H]2C[C@@H](n3cnc4ccc(C#N)cc43)C[C@@H]21

- concentration at 120 h (in vivo [2]): 5100 nM
- concentration at 120 h (in vivo [3]): 2800 nM
Structure (SMILES): C[C@@H](NC(=O)c1ccc(Cl)cc1)[C@H]1[C@@H]2C[C@@H](n3cnc4cc(F)c(F)cc43)C[C@@H]21

- concentration at 24 h [4]: 500 nM
- concentration at 24 h [5]: 1900 nM
- CLint scaled at 0.75 h, 1 µM (in vitro [1]): 17 mL/min/kg
Structure (SMILES): CCC(c1nc2cc(Cl)ccc2[nH]1)[C@H]1[C@@H]2C[C@@H](c3ccnc4ccc(F)cc34)C[C@@H]21 (some centres undefined)

- Papp A→B [6]: 5.53 ×10⁻⁶ cm/s
- Papp B→A [7]: 5.61 ×10⁻⁶ cm/s
- Papp A→B [8]: 3.7 ×10⁻⁶ cm/s
- Papp B→A [9]: 2.07 ×10⁻⁶ cm/s
- CLint scaled at 0.75 h, 1 µM (in vitro [10]): 956 mL/min/kg
- CLint scaled at 0.75 h, 1 µM (in vitro [1]): 316 mL/min/kg
Structure (SMILES): CCC(NC(=O)c1ccc(Cl)cc1)[C@H]1[C@@H]2C[C@H](Oc3ccnc4ccccc34)C[C@@H]21 (some centres undefined)

- CLint scaled at 0.75 h, 1 µM (in vitro [1]): 5.5 mL/min/kg
Structure (SMILES): CCC(NC(=O)c1ccc(Cl)cc1)[C@H]1[C@@H]2C[C@@H](n3cnc4cc(F)cc(F)c43)C[C@@H]21 (some centres undefined)

- CLint scaled at 0.75 h, 1 µM (in vitro [1]): 227 mL/min/kg
Structure (SMILES): O=C(NC[C@H]1[C@H]2C[C@H](Oc3ccnc4ccc(F)cc34)C[C@@H]12)c1ccc(Cl)cc1

- AUC(0-inf) (in vivo [11]): 106 µM·h
- half-life (in vivo [12]): 1980 min
- Vd (in vivo [13]): 0.31 L/kg
- clearance (in vivo [14]): 0.117 mL/min/kg
- Cmax (in vivo [15]): 44 µM
- bioavailability (in vivo [16]): 62%
- CLint scaled at 0.75 h, 1 µM (in vitro [1]): 17 mL/min/kg
Structure (SMILES): CC(NC(=O)c1ccc(C#N)cc1)[C@H]1[C@@H]2C[C@@H](Oc3ncnc4cc(F)ccc34)C[C@@H]21 (some centres undefined)

- CLint scaled at 0.75 h, 1 µM (in vitro [1]): 4.5 mL/min/kg
Structure (SMILES): CCC(NC(=O)c1ccc(Cl)cc1)[C@H]1[C@@H]2C[C@@H](n3cnc4ncc(C#N)cc43)C[C@@H]21 (some centres undefined)

- concentration at 120 h (in vivo [17]): 52 µM
- concentration at 120 h (in vivo [18]): 49.3 µM
Structure (SMILES): CC[C@@H](NC(=O)c1ccc(C#N)cc1)[C@H]1[C@@H]2C[C@@H](n3cnc4cc(F)c(F)cc43)C[C@@H]21

- CLint scaled at 0.75 h, 1 µM (in vitro [1]): 13 mL/min/kg
Structure (SMILES): CCC(NC(=O)c1ccc(Cl)cc1)[C@H]1[C@@H]2C[C@@H](NC(=O)c3cncc(F)c3)C[C@@H]21 (some centres undefined)

- concentration at 12 h [19]: 610 nM
- concentration at 12 h [20]: 60 nM
- AUC at 168 h [21]: 95 µM·h
- clearance at 24 h (in vivo [22]): 33.3 mL/min/kg
- Vd at 24 h (in vivo [23]): 4.5 L/kg
- half-life at 24 h (in vivo [24]): 94.2 min
- AUC(0-inf) at 24 h (in vivo [25]): 0.37 µM·h
- Cmax at 24 h (in vivo [26]): 4.1 µM
- bioavailability at 24 h (in vivo [27]): 39%
- concentration at 120 h (in vivo [2]): 900 nM
- concentration at 120 h (in vivo [3]): 20 nM
- CLint scaled at 0.75 h, 1 µM (in vitro [1]): 28 mL/min/kg
Structure (SMILES): C[C@H](C(=O)Nc1ccc(Cl)cc1)[C@H]1CC[C@@H](c2ccnc3ccc(F)cc32)CC1

- CLint scaled at 0.75 h, 1 µM (in vitro [1]): 18 mL/min/kg
Structure (SMILES): CCC(NC(=O)c1ccc(Cl)cc1)[C@H]1[C@@H]2C[C@@H](n3cnc4ccc(F)c(F)c43)C[C@@H]21 (some centres undefined)

- CLint scaled at 0.75 h, 1 µM (in vitro [10]): 170 mL/min/kg
- CLint scaled at 0.75 h, 1 µM (in vitro [1]): 115 mL/min/kg
Structure (SMILES): O=C(Nc1ccc(Cl)cc1)N1CCC(CCc2ccnc3ccccc23)CC1

- CLint scaled at 0.75 h, 1 µM (in vitro [1]): 0.46 mL/min/kg
Structure (SMILES): CCC(NC(=O)c1ccc(Cl)cc1)[C@H]1[C@@H]2C[C@@H](n3cnc4cc(F)cnc43)C[C@@H]21 (some centres undefined)

- concentration at 120 h (in vivo [2]): 600 nM
- concentration at 120 h (in vivo [3]): 500 nM
Structure (SMILES): CC[C@@H](NC(=O)c1ccc(Cl)cc1)[C@H]1[C@@H]2C[C@@H](n3cnc4ccc(Cl)cc43)C[C@@H]21

- concentration at 120 h (in vivo [2]): 100 nM
- concentration at 120 h (in vivo [3]): 10 nM
Structure (SMILES): CC[C@@H](NC(=O)c1ccc(Cl)cc1)[C@H]1[C@@H]2C[C@@H](n3c(C)nc4ccc(F)cc43)C[C@@H]21
